How the values were obtained:
[1] = system: young oophorectomized rats; experiment: Estrogenic activity (uterine wet weight) in young oophorectomized rats; format: in vivo, Sprague-Dawley rats
Protocol: Sprague-Dawley rats, 33 days old and 11 days after oophorectomy for elimination of endogenous estrogenic activity, were used in groups of 6 to 7 animals. Compound (I) was suspended in a 1% aqueous solution of hydroxypropylcellulose and administered orally for 3 days, while as a representative example of the conventional estrogen drug, estrone was dissolved in sesame oil and administered subcutaneously for 3 days. On the fourth day, each animal was autopsied and its uterine wet weight was recorded.
Sprague-Dawley rats, 33 days old and 11 days after oophorectomy for elimination of endogenous estrogenic activity, were used in groups of 7 animals. Compound (II) was suspended in a 1% aqueous solution of hydroxypropylcellulose and administered orally.

[2] = system: rat fetal long bone culture; experiment: Bone resorption inhibiting activity in rat fetal long bone culture (45Ca release, method of Raisz); format: cell-based, Sprague-Dawley rat; settings: for ^45Ca (%) released: incubated 3 days, mean ± S.D. of six bones; for bone resorption: result in words, summary of Table 3
Protocol: Determination of bone resorption was performed by the method of Raisz [J. Clin. Invest. 44, 103-116 (1965)]. rhus, a Sprague-Dawley rat on the 19th day of pregnancy was subcutaneously injected with 50 p Ci of 45Ca (isotope of calcium, CaCl2 solution), and was laparotomized on the following day. The embryos were aseptically taken out, the forelimbs (radius and ulna) were cut off from the trunk under a binocular dissecting microscope, and the connective tissue and cartilage were removed as much as possible to prepare bone samples. Each bone sample was preincubated at 37°C for 24 hours in 0.6 mℓ of the medium containing 2 mg/mℓ of bovine serum albumin in BGJb medium (Fitton-Jackson modification) [GIBCO Laboratories, Grand Island, NY 14072 U.S.A.]. Then, the sample was further incubated for 3 days in the same medium as above in which 10 µg/mℓ or 25 µg/mℓ of compound (I) or 10 µg/mℓ of compound (II) had been incorporated. Then, the radioactivity of 45Ca in the medium and that of 45Ca in the bone were measured and the percentage (%) of ^45Ca released from the bone into the medium was calculated by the following formula.
Percentage (%) of 45 Ca released from bone into medium [formula]
As control, the bones of the embryos from the same litter were similarly incubated in the absence of compound (I) or (II) for 3 days.

[3] = system: rat fetal long bone culture; experiment: Inhibition of the bone resorption potentiating action of parathyroid hormone in rat fetal long bone culture; format: cell-based
Protocol: The bone samples prepared in the same manner as Test Example 3 were pre-incubated for 24 hours in the same medium as that prepared in Test Example 3 which contains bovine serum album in BGJb medium (Fitton-Jackson modification). Then, in the concomitant presence of PTH (parathyroid hormone, a bone resorption stimulant) and compound (II), the samples were further incubated for 3 days and the percentage of ^45Ca released into the medium was calculated by means of the same formula as that in Test Example 3. As control experiments, the same determination was made for a control group using the medium supplemented with PTH alone.

ICR mice = experiment: Acute toxicity in mice; format: in vivo; settings: observed 14 days, LD50 could not be calculated
Protocol: (§1) Five-week-old ICR mice and 5-week-old Sprague-Dawley rats were respectively used in groups of 10 males and 10 females, and suspensions of compound (I) or compound (II) in olive oil were administered orally [2,500, 5,000 and 10,000 mg/kg of each compound] or subcutaneously [1,250, 2,500 and 5,000 mg/kg]. The animals were kept under observation for 14 days.

Sprague-Dawley rats = experiment: Acute toxicity in rats; format: in vivo; settings: observed 14 days, LD50 could not be calculated
Protocol: as §1

[4] = orally 2,500, 5,000 and 10,000 mg/kg in olive oil
[5] = subcutaneously 1,250, 2,500 and 5,000 mg/kg in olive oil

C[C@]12CC[C@@H]3c4ccc(O)cc4CC[C@H]3[C@@H]1CCC2=O [Estrone, estrone, reference compound]
Uterine wet weight (mg ± S.D.) ([1]; daily dose 0.0025 mg/kg subcutaneously in sesame oil for 3 days, control group 35.0 ± 1.0): 101.7 ± 4.6 mg | Uterine wet weight (mg ± S.D.) ([1]; daily dose 0.005 mg/kg subcutaneously in sesame oil for 3 days, control group 35.0 ± 1.0): 159.8 ± 9.4 mg | Uterine wet weight (mg ± S.D.) ([1]; daily dose 0.01 mg/kg subcutaneously in sesame oil for 3 days, control group 35.0 ± 1.0): 223.3 ± 12.5 mg

O=c1c(-c2ccc(O)cc2)coc2cc(O)ccc12 [Compound (II), 7,4'-dihydroxy-isoflavone]
Uterine wet weight (mg ± S.D.) ([1]; Test Example 2, daily dose 6.25 mg/kg orally, control group 31.1 ± 1.1): 33.2 ± 0.8 mg | Uterine wet weight (mg ± S.D.) ([1]; Test Example 2, daily dose 25 mg/kg orally, control group 31.1 ± 1.1): 32.8 ± 1.0 mg | Uterine wet weight (mg ± S.D.) ([1]; Test Example 2, daily dose 100 mg/kg orally, control group 31.1 ± 1.1): 35.3 ± 1.3 mg | Uterine wet weight (mg ± S.D.) ([1]; Test Example 2, daily dose 400 mg/kg orally, control group 31.1 ± 1.1): 62.3 ± 6.0 mg | uterine weight increasing activity ([1]; orally, dose level of 400 mg/kg): showed mild uterine weight increasing activity | ^45Ca (%) released ([2]; 10 µg/mℓ, control group 19.9 ± 5.0): 15.9 ± 1.3 % | bone resorption [2]: suppressed bone resorption | ^45Ca (%) released ([3]; 10 µg/ml in concomitant presence of PTH, incubated 3 days, control group (PTH alone) 30.8±4.3): 23.5±3.4 % | PTH-stimulated bone resorption ([3]; result in words, summary of Table 4): suppressed PTH-stimulated bone resorption | deaths and toxic symptoms (ICR mice; [4]): None of the groups showed deaths nor toxic symptoms | deaths and toxic symptoms (ICR mice; [5]): None of the groups showed deaths nor toxic symptoms | deaths and toxic symptoms (Sprague-Dawley rats; [4]): None of the groups showed deaths nor toxic symptoms | deaths and toxic symptoms (Sprague-Dawley rats; [5]): None of the groups showed deaths nor toxic symptoms

O=c1c(-c2ccccc2)coc2cc(O)ccc12 [Compound (I), 7-hydroxy-isoflavone]
Uterine wet weight (mg ± S.D.) ([1]; daily dose 6.25 mg/kg orally for 3 days, control group 35.0 ± 1.0): 32.8 ± 1.1 mg | Uterine wet weight (mg ± S.D.) ([1]; daily dose 12.5 mg/kg orally for 3 days, control group 35.0 ± 1.0): 33.4 ± 0.9 mg | Uterine wet weight (mg ± S.D.) ([1]; daily dose 25 mg/kg orally for 3 days, control group 35.0 ± 1.0): 35.1 ± 0.8 mg | Uterine wet weight (mg ± S.D.) ([1]; daily dose 50 mg/kg orally for 3 days, control group 35.0 ± 1.0): 35.3 ± 1.7 mg | Uterine wet weight (mg ± S.D.) ([1]; daily dose 100 mg/kg orally for 3 days, control group 35.0 ± 1.0): 35.9 ± 1.0 mg | Uterine wet weight (mg ± S.D.) ([1]; daily dose 200 mg/kg orally for 3 days, control group 35.0 ± 1.0): 57.9 ± 1.0 mg | Uterine wet weight (mg ± S.D.) ([1]; daily dose 400 mg/kg orally for 3 days, control group 35.0 ± 1.0): 70.4 ± 6.7 mg | uterine weight increasing effect, dose-response curve ([1]; orally, daily dose levels of 200 mg/kg and 400 mg/kg): produced uterine weight increasing effect with a dose-response curve of moderate gradient | ^45Ca (%) released ([2]; 10 µg/mℓ, control group 20.6 ± 3.8): 16.5 ± 2.5 % | ^45Ca (%) released ([2]; 25 µg/mℓ, control group 20.6 ± 3.8): 13.5 ± 2.5 % | bone resorption [2]: suppressed bone resorption

From patent EP0135172A2, “Method for treatment of osteoporosis” (Takeda Chemical Industries, Ltd., priority 1983, dated 1985)
